Test results reported in patent US20080182806A1, “USE OF ACETYLATED OR ESTERIFICATED AZACYTIDINE, DECITABINE, OR OTHER NUCLEOSIDE ANALOGS AS ORAL AGENTS FOR THE TREATMENT OF TUMORS OR OTHER DYSPLASTIC SYNDROMES SENSITIVE TO HYPOMETHYLATING AGENTS” (Nevada Cancer Institute, priority 2007, published 2008).

Tests used:
[1] = test system: myelodysplastic syndromes; details: 15 mg/m^2 intravenously over 4 hours three times a day for 3 days; cited from earlier work
Lymphoid leukemia L1210 = test: Survival of leukemic BDF1 mice inoculated i.p. with L1210 cells; type: in vivo
Protocol: Lymphoid leukemia L1210 was carried in BDF1 mice by weekly i.p. passages. Ascites fluid was aspirated from a donor mouse and sampled, and an aliquot was carefully diluted and counted in a hemocytometer. The original suspension of cells was then diluted appropriately in […] medium to 1×10^6 cells/ml. and injected i.p. (1×10^5 cells/0.1 ml/mouse) into recipient BDF1 mice.
A daily oral administration injection of TAC (38 mg/kg) diluted in PBS was given to leukemic BDF1 mice by oral gavage starting 24 hours from the inoculation of L1210 cells for a total of 5 days. A group of untreated leukemic mice of the same strain, sex, age, and weight served as controls.

[2] = Pharmacokinetics and metabolism of TAC in mice (plasma LC/MS/MS); type: in vivo; details: female, C57/BL6, mouse
Protocol: The title product and its active metabolite azacytidine (ACT) were then subjected to LC/MS/MS analysis using the following protocol. Stock solutions were prepared by weighing out 5-10 mg of TAC which was dissolves in methanol to a final concentration of about 0.5 mg/ml. The solution was labeled as “TAC Stock.” 2-3 mg of ACT were then weighed and dissolved in methanol to a final concentration of about 0.2 mg/ml. The solution was labeled as “ACT Stock.” Finally, the TAC and ACT stocks were diluted to a concentration of about 50 μg/ml in methanol, and labeled as “ACT/TAC Stock.” All solutions were stored at −20° C. […]
Samples were then initially prepared as follows. A measured aliquot of the acetonitrile extracted plasma sample was removed and placed into a 10×75 mm disposable glass test tube, followed by evaporating liquid down to approximately 50 μl under nitrogen at 37° C., diluting with 1 ml 2% phosphoric acid, and vortexing for 10 seconds at 3,000 rpm.
The samples were then analyzed by the SPE, HPLC and MS/MS methods. […]
Individual concentration-time data were analyzed using noncompartmental methods using WinNonlin Professional (Pharsight, Mountain View, Calif.). […] The terminal rate constant (λz) is determined from the slope of the terminal phase of the plasma concentration-time curve using uniform weight. The terminal half-life (T1/2) was calculated as 0.693 divided by λz. […]

global DNA methylation = test: Global DNA methylation in mouse tissues (Epigentek Methylamp Global DNA Methylation Quantification Kit); type: in vivo, mice; details: for effect on global DNA methylation in the kidneys after 48 hours / reduction in global DNA methylation in the kidneys: 38 mg/kg TAC p.o. or 25 mg/kg ACT i.v.; for reduction in global DNA methylation in the kidneys: within 24 hours
Protocol: The pharmacodynamic effect of TAC and ACT was determined at 24 and 48 hours following drug administration after the female C57/BL6 mice were euthanized, their tissues rapidly harvested, snap-frozen in liquid nitrogen, and stored at −80° C. The effect on methylation was determined by using the Epigentek Methylamp™ Global DNA Methylation Quantification Kit. Isolated genomic DNA from mouse tissues 24 or 48 hours after treatment with 25 mg/kg ACT i.v. and 38 mg/kg TAC p.o., methylation status was determined using 100 ng of each gDNA sample.

[3] = test system: myelodysplastic syndromes; details: 75 mg/m^2 subcutaneously daily for 7 days every 4 weeks, cited from earlier work

## Nc1ncn([C@H]2C[C@H](O)[C@@H](CO)O2)c(=O)n1 [decitabine, 4-amino-1-(2-deoxy-b-D-erythro-pentofuranosyl)-1,3,5-triazin-2(1H)-one]
[1]
  overall response rate: 49%

## CC(=O)OC[C@H]1O[C@@H](n2cnc(N)nc2=O)[C@H](OC(C)=O)[C@@H]1OC(C)=O [TAC, 2′,3′,5′-triacetyl-5-azacytidine]
Lymphoid leukemia L1210; TAC 38 mg/kg daily by oral gavage for 5 days, starting 24 hours after L1210 inoculation
  median survival time: 14 days
Lymphoid leukemia L1210; TAC 38 mg/kg daily oral for 5 days versus untreated control group
  increased lifespan: 55%
[2]; plasma, by 4 hours after oral administration of 38 mg/kg TAC, read-out: TAC plasma concentration (below the limit of detection)
  concentration at 4 h: < 30 ng/mL
Global DNA methylation
  effect on global DNA methylation in the kidneys after 48 hours: subsided
  reduction in global DNA methylation in the kidneys: 50%
Global DNA methylation; spleen, later time point, oral TAC 38 mg/kg
  further decrease in methylation in spleen compared to untreated tissue: 40%

## Nc1ncn([C@@H]2O[C@H](CO)[C@@H](O)[C@H]2O)c(=O)n1 [ACT, 4-amino-1-β-D-ribofuranosyl-1,3,5-triazin-2(1H)-one]
[2]; iv, 25 mg/kg, azacytidine administered i.v., mice plasma
  half-life: 4 to 5 h
[3]
  mean time to response: six
[3]; higher-risk groups
  response: 61%
[3]; lower-risk patients with refractory anemia
  response rate: 60%
Global DNA methylation
  effect on global DNA methylation in the kidneys after 48 hours: subsided
  reduction in global DNA methylation in the kidneys: 50%
